# According to article PMC9841525, “Chemical Blockage of the Mitochondrial Rhomboid Protease PARL by Novel Ketoamide Inhibitors Reveals Its Role in PINK1/Parkin-Dependent Mitophagy” (Journal of Medicinal Chemistry, 2022):
# *1 amine or outer side, *2 acyl side, *3 side chain or, on linkers, in order; H or OH if unused. Where a SMILES comes first, the peptide text is derived from it. [ ]: non-standard residue; d: D form. The star is where a group is joined. NH(4-phenylbutyl) = c1ccc(CCCCN*)cc1; X1 = C[C@H](N[*:1])C(=O)C(=O)[*:2]
# Tests used:
# PINK1 = PINK1 processing in HEK293 T-REx cells overexpressing PINK1, immunoblot; assay type: cell-based, human; conditions: HEK293 T-REx cells overexpressing PINK1, 8 h
# Description: Inducible stable Flp-In HEK293 T-REx cells expressing PINK1 were described previously.[33] HEK293 T-REx PINK1 and HEK293T cells were grown in DMEM (Gibco) supplemented with 10% (v/v) fetal bovine serum (ThermoFisher), 1% (v/v) GlutaMAX (Gibco), 1% (v/v) sodium pyruvate (Gibco), 125 μg/mL hygromycin (Invitrogen), and 10 μg/mL blasticidin (Gibco) or DMEM supplemented with 10% (v/v) fetal bovine serum, respectively, at 37 °C in 5% (v/v) CO2. For microscopy, cells were seeded on poly-L-lysine (Sigma)-coated slides. Transient plasmid transfections were performed using 25 kDa linear polyethylenimine (Polysciences). Plasmid (100 ng) encoding HA-Parkin-IRES-GFP, mito-mCherry or Parkin-mEGFP, or 500 ng plasmid encoding PGAM5-FLAG were used per 6-well. Total transfected DNA was 2 μg/well. For siRNA transfection, 2 × 10^5 cells were seeded per 6-well and on the next day transfected with 20 nM siRNA-oligonucleotide using lipofectamine RNAiMAX (ThermoFisher). Cells were analyzed 27 h post-transfection or five days post-siRNA-transfection. HEK293 T-REx PINK1 cells were induced with 0.3 μg/mL doxycycline for 24 h before further processing. […] For quantification, ImageJ was used (http://rsb.info.nih.gov/ij/). Immunoblots shown are representative of at least three independent experiments and were evaluated using Excel and GraphPad Prism 9 (GraphPad Software, Inc.).
# Parkin = Parkin recruitment to mitochondria, subcellular fractionation and immunoblot; assay type: cell-based, human; conditions: HEK293 T-REx PINK1 cells, HA-Parkin-IRES-GFP; 5 μM compound 5, CCCP 10 μM or Antimycin A 30 μM
# Description: Inducible stable Flp-In HEK293 T-REx cells expressing PINK1 were described previously.[33] HEK293 T-REx PINK1 and HEK293T cells were grown in DMEM (Gibco) supplemented with 10% (v/v) fetal bovine serum (ThermoFisher), 1% (v/v) GlutaMAX (Gibco), 1% (v/v) sodium pyruvate (Gibco), 125 μg/mL hygromycin (Invitrogen), and 10 μg/mL blasticidin (Gibco) or DMEM supplemented with 10% (v/v) fetal bovine serum, respectively, at 37 °C in 5% (v/v) CO2. For microscopy, cells were seeded on poly-L-lysine (Sigma)-coated slides. Transient plasmid transfections were performed using 25 kDa linear polyethylenimine (Polysciences). Plasmid (100 ng) encoding HA-Parkin-IRES-GFP, mito-mCherry or Parkin-mEGFP, or 500 ng plasmid encoding PGAM5-FLAG were used per 6-well. Total transfected DNA was 2 μg/well. For siRNA transfection, 2 × 10^5 cells were seeded per 6-well and on the next day transfected with 20 nM siRNA-oligonucleotide using lipofectamine RNAiMAX (ThermoFisher). Cells were analyzed 27 h post-transfection or five days post-siRNA-transfection. HEK293 T-REx PINK1 cells were induced with 0.3 μg/mL doxycycline for 24 h before further processing. Hoechst staining (1 μg/mL) was done immediately before adding treatment to the cells. Treatments were administered for the indicated times before processing; CCCP (Sigma) was always used as 10 μM for 3 h and Antimycin A (Sigma) as 30 μM for 3 h.
# Unless mentioned otherwise, all steps were performed at 4 °C. For subcellular fractionation to separate cellular content into cytosolic and mitochondrial fractions, cells were washed with PBS, harvested in PBS-EDTA (1 mM EDTA, 0.2 g/L D-glucose), and centrifuged at 500 × g for 5 min. […]
# For immunoblot analysis in other cases, cells were either processed as described above or washed with PBS and directly lysed with Tris-glycine SDS-PAGE sample buffer and heated for 15 min at 65 °C. […] For quantification, ImageJ was used (http://rsb.info.nih.gov/ij/). […]
smiles,measurement,setting,value
CC(=O)N[C@@H](C)C(=O)N[C@H](C(=O)N[C@@H](Cc1ccccc1)C(=O)N[C@@H](CC(C)C)C(=O)N[C@@H](C)C(=O)C(=O)NCCCCc1ccccc1)C(C)C [compound 5] (Ac-AVFL[X1]-{NH(4-phenylbutyl)}),Effect on cleavage and stabilization of overexpressed PINK1,PINK1,dose-dependent stabilization of PINK1–66
same,Effect on cleavage and stabilization of overexpressed PINK1,PINK1; listed as Compound 5,inhibits the PARL-cleavage of overexpressed PINK1 in a dose-dependent manner
same,Parkin recruitment to the mitochondrial fraction,Parkin,"Parkin recruitment to the mitochondrial fraction, albeit in a lower quantity than in the two chemically induced stress conditions"
